Columns and labels:
cancer cells = test: killing of cancer cells, cytostatic effect confirmed using the crystal violet test; format: cell-based; settings: endoperoxide in liposomes
From the text: A further molecule 22 forming endoperoxide has an additional hydroxyl group which with the cage wall can form hydrogen bridges (preferably in PVB nanoparticles, in PVB films or ethyl cellulose nanoparticles), which likewise causes an increase in the decomposition times.

[1] = PVB matrix, 37° C.
From the text: The entire decomposition curve is usually determined indirectly via the measurement of the fluorescence of the DMN molecules which reappear during decomposition of the endoperoxides.

| Structure (SMILES) | killing of the cancer cells (cancer cells) | decomposition time of curve 27, factor longer than DMN in liquids ([1]; after renewed endoperoxide formation, slow component (curve 27)) [factor] | half-life from curve 24 greater than that for DMN in organic solvent ([1]; curve 24 versus DMN in organic solvent) | decomposition time from curve 25, factor greater ([1]; first decomposition, slow component (curve 25), compared with DMN in organic solvent) [factor] |
| --- | --- | --- | --- | --- |
| CC12C=CC(C)(OO1)c1ccccc12 [DMN endoperoxide, 1,4-dimethylnaphthalene endoperoxide] | not | > 30 | approximately 30% | ~6 |
| Cc1cccc2c1C1(C)C=CC2(C)OO1 (centres unmarked) [TMN endoperoxide] | killing of the cancer cells was ascertained |  |  |  |

From patent US9969617B2, “Material system containing endoperoxide with adaption of decomposition, and applications” (priority 2009, dated 2018)
